According to US6221914A, “Sulfonamide bridging compounds that inhibit tryptase activity” (Array Biopharma Inc., priority 1998, dated 2001):

Key:
[1] = target: Human lung tryptase; assay: Ki determination, human lung tryptase (Tosyl-Gly-Pro-Arg-pNA substrate); assay type: biochemical; conditions: 50 mM Tris-HCl pH 8.0, 37° C., 1 nM tryptase, 320 μM GPR-pNA; read-out: Experimentally Determined Ki, Tryptase
Procedure: (§1) Protease inhibition was assayed according to published procedures with minor modifications using various proteases and specific chromogenic peptide p-nitroanilide substrates. Assays were performed in Costar ultra-low cluster 96-well microtiter plate (Costar Corning Corp., Cambridge Mass.). Each protease was incubated with various concentrations of the test compound for 15 min. at 37° C. or as otherwise indicated, in specific assay buffer, and the residual activity was then measured by addition of the substrate. p-Nitroaniline produced by the proteolysis was determined by measuring the change in absorbance at 405 nm on a SpectraMAX 340 plate reader (Molecular devices, Sunnyvale, Calif.).
(§2) 1. The inhibition constant, Ki is calculated from individual data points using the equation for a tight-binding inhibitor (See Beith, "Proteinase Inhibitors-Proceedings of 2nd Int. Res. Conference", Fritz, et al. eds, New York, p.4463-4469 (1974)):
(§3) vi /vo [((Ki '+[I]+[E]o)^2 -4 [I]o
(§4) [E]o)^1/2 (Ki '+[I]o -[E]o)]/2[E]o
(§5) where Ki ' is apparent inhibition constant; vi and vo are the inhibited and uninhibited rates, respectively; [I]o and [E]o are the total concentrations of inhibitor and enzyme, respectively.
(§6) [note: [E]o is determined by active site titration of enzyme]
(§7) The Ki values are obtained by correcting Ki ' values for the effect of substrate concentration according to: [formula]
(§8) 2. Other inhibition data (Ki >>[E]o), the Ki is calculated from using the equations for a competitive inhibitor: [formula]
Human lung tryptase purchased from Cortex Biochem (San Leandro, Calif.) was purified further on a Superdex 200 gel-filtration column. The active-site concentration of the enzyme was determined by spectrophotometric titration with 4-nitrophenyl 4'-guanidinobenzoate according to Schwartz, et al., J. Immunol., 114, 2304-2311 (1990). Tryptase activity was measured according to the procedures of Schwartz, et al., J. Biol. Chem., 261, 7372-7379 (1986) (See also, Schwartz, L. B., Methods In Enzymology, 244, 88 (1994)) with minor modifications, using Tosyl-Gly-Pro-Arg-p-nitroanilide ("GPR-pNA", Sigma Chemical Co., St. Louis, Mo., T-1637) as a chromogenic substrate. The reaction was performed in 50 mM Tris-HCl, pH 8.0, containing 150 mM NaCl and 0.02% Triton X-100 at 37° C. in Costar ultra-low cluster 96-well microtiter plates (Costar Corning Corp., Cambridge, Mass.). The amount of pNA produced by tryptase was determined by measuring the change in absorbance at 405 nm on a SpectraMAX 340 plate reader (Molecular devices, Sunnyvale, Calif.). The Km for the substrate was determined by Lineweaver-Burk analysis from initial velocities of substrate hydrolysis. The inhibition assay was carried out in a total volume of 200 μL. Tryptase (30 μL- final concentration 1 nM) was incubated with various concentrations of sample compound (50 μL) to be tested in the above assay buffer for 5 min. The reaction was started by the addition of substrate GPR-pNA (40 μL-final concentration 320 μM), and the residual activity was measured after 15 min. of incubation. The inhibition constant, Ki, was determined by fitting the inhibition data to a two-site competitive binding equation using data analysis program GraphPad PRISM (GraphPad Software, Inc., San Diego, Calif.).
(§9) The inhibition constant (Ki) of the test compounds against each proteolytic enzyme was determined according to Zitnik et al., Biochem. Biophys. Res. Commun. 232, 687-697 (1997)).

[2] = test system: antigen-induced airway hyperresponsiveness in guinea pigs; assay: Guinea pig airway hyperresponsiveness inhibition (ovalbumin-sensitized, histamine bronchoprovocation); assay type: in vivo, guinea pig (male Hartley); conditions: 1 mg/kg, i.t., 1 hour before antigen challenge; histamine response 6 h after antigen
Procedure: The compounds of the invention were tested for their ability to inhibit hyperresponsiveness in a guinea pig airway hyperresponsiveness screen according to the following protocol:
Male Hartley guinea pigs (Charles River Laboratories Inc., Wilmington, Mass.) were sensitized to ovalbumin by intraperitoneal injection with a 0.5 mL solution of 10 μg ovalbumin and 10 mg aluminum hydroxide in phosphate-buffered saline. […] Seven to nine weeks after the initial injection, the animals were used to evaluate antigen-induced guinea pig airway responses.
In order to evaluate antigen-induced airway hyperresponsiveness in guinea pigs, a baseline histamine bronchoprovocation was initially conducted in unrestrained animals. Guinea pigs (450-600 g) were placed in a whole body plethysmograph (Buxco Electronics, Troy, N.Y.). The animals were exposed to 5 second bursts of histamine aerosol generated by a DeVilbis ultrasonic nebulizer (Somerset, Pa.). […] Three days after the histamine baseline determination, the guinea pigs were again placed in the whole body plethysmograph and challenged with a 3 second aerosolized burst of 0.1% ovalbumin in phosphate-buffered saline. Six hours after antigen exposure, the development of hyperresponsiveness was evaluated by repeating the histamine bronchoprovocation. Comparisons between treatment groups were based on areas under the histamine dose response curves (AUC).
Test compounds were administered by intratracheal instillation at a dose of 1 mg/kg in PBS (pH 7.2), 1 hour before the antigen challenge. After anesthetizing a guinea pig with inhaled methoxyflurane, an endotracheal tube (18 gauge Teflon® sheath) was visually passed into the trachea with the aid of a fiberoptic light source. Test agents (or PBS for control animals) was dosed through the tube followed by a bolus of air to facilitate dispersion.
Two-way analysis of variance (ANOVA) followed by the Fisher PLSD test was used to evaluate areas under the curve ("AUC") for histamine dose responses in guinea pigs. Significance was accepted for p<0.05.

[3] = target: T1, Human Neutrophil elastase (Homo sapiens, UniProt P08246); assay: Ki determination, human neutrophil elastase (pyroGlu-Pro-Val-pNA); assay type: biochemical; conditions: 100 mM Tris-HCl, pH 8.3, 0.96 M NaCl, 1% BSA; read-out: Experimentally Determined Ki, Elastase
T1 construct: from tissue; host or cells: human neutrophils
T1 sequence (P08246 30-267): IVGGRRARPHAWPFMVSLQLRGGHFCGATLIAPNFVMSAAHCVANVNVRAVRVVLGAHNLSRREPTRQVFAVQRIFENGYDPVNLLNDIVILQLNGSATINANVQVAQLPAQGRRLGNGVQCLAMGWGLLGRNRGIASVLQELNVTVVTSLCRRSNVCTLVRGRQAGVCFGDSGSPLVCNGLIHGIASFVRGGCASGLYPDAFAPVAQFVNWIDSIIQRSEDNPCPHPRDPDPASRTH
Procedure: as §1, §2, §3, §4, §5, §6, §7, §8
Human Neutrophil elastase activity was determined by using pyroGlu-Pro-Val-pNA in 100 mM Tris-HCl, pH 8.3, 0.96 M NaCl, 1% BSA (See Kramps, et al. Scand. J. Clin. Lab. Invest. 43, 427-432 (1983)).
as §9

Compound	Ki [1]	Hyperresponsiveness AUC % Inhibition [2]	Ki [3]
N=C(N)c1cccc(S(=O)(=O)NCc2ccc(OCCCCCOc3ccc(CNS(=O)(=O)c4cccc(C(=N)N)c4)cc3)cc2)c1 [Example 41, 1,5-Bis-{4-[(3-carbamimidoyl-benzenesulfonylamino)-methyl]-phenoxy}-pentane]	80 nM	95%	> 100000 nM
N=C(N)c1cccc(S(=O)(=O)NCc2ccc(OCCCCOc3ccc(CNS(=O)(=O)c4cccc(C(=N)N)c4)cc3)cc2)c1 [Example 47, 1,4-Bis-{4-[(3-carbamimidoyl-benzenesulfonylamino)-methyl]-phenoxy}-butane]	30 nM	29%	> 100000 nM
N=C(N)c1ccc(S(=O)(=O)NCc2ccc(OCCCOc3ccc(CNS(=O)(=O)c4ccc(C(=N)N)cc4)cc3)cc2)cc1 [Example 50, 1,3-Bis-{4-[(4-carbamimidoyl-benzenesulfonylamino)-methyl]-phenoxy}-propane]	800 nM	50%	> 100000 nM
N=C(N)c1ccc(C(=O)NCc2ccc(OCCCCCOc3ccc(CNC(=O)c4ccc(C(=N)N)cc4)cc3)cc2)cc1 [Example 54, 1,5-Bis-{4-[(4-carbamimidoyl-benzenecarbonylamino)-methyl]-phenoxy}-pentane]	–	53%	> 100000 nM
N=C(N)c1cccc(C(=O)NCc2ccc(OCCCCCOc3ccc(CNC(=O)c4cccc(C(=N)N)c4)cc3)cc2)c1 [Example 55, 1,5-Bis-{4-[(3-carbamimidoyl-benzenecarbonylamino)-methyl]-phenoxy}-pentane]	10 nM	107%	> 100000 nM
N=C(N)c1ccc(C(=O)NCc2ccc(OCCCCCCOc3ccc(CNC(=O)c4ccc(C(=N)N)cc4)cc3)cc2)cc1 [Example 56, 1,6-Bis-{4-[(4-carbamimidoyl-benzenecarbonylamino)-methyl]-phenoxy}-hexane]	–	62%	> 100000 nM
N=C(N)c1ccc2[nH]c(CC(=O)NCc3ccc(OCCCOc4ccc(CNC(=O)Cc5nc6cc(C(=N)N)ccc6[nH]5)cc4)cc3)nc2c1 [Example 107, 2-(5-Carbamimidoyl-1H-benzoimidazol-2-yl)-N-{4,-[3-(4-{2-(5-carbamimidoyl-1H-benzoimidazol-2-yl)acetylaminol-methyl}-phenoxy)-propoxy]-benzyl}-acetamide]	12 nM	–	> 100000 nM
N=C(N)c1ccc2[nH]c(CC(=O)NCc3ccc(OCCCCCOc4ccc(CNC(=O)Cc5nc6cc(C(=N)N)ccc6[nH]5)cc4)cc3)nc2c1 [Example 108]	9 nM	68%	> 100000 nM
N=C(N)c1ccc2[nH]c(CC(=O)NCc3ccc(OCCCCOc4ccc(CNC(=O)Cc5nc6cc(C(=N)N)ccc6[nH]5)cc4)cc3)nc2c1 [Example 109]	8 nM	–	> 100000 nM
N=C(N)c1ccc2sc(C(=O)NCc3ccc(OCCCOc4ccc(CNC(=O)c5cc6cc(C(=N)N)ccc6s5)cc4)cc3)cc2c1 [Example 117, 1,3-Bis-{4-[(5-carbamidoyl-2-benzthiophenyl-carbamido)-methyl]-phenoxy}-propane]	12 nM	–	> 100000 nM
